# From patent US11730792B2, “Coversin (OmCI) for the treatment of autoimmune blistering diseases: bullous pemphigoid (BP) and epidermolysis bullosa acquisita (EBA)” (VOLUTION IMMUNO PHARMACEUTICALS SA, priority 2017, dated 2023)
# “Also recorded” adds a separate entry of the source.
# T1: Ornithodoros moubata Coversin (EV576, OmCI), amino acids 19 to 168 of SEQ ID NO: 2 (SEQ ID NO: 4) (Ornithodoros moubata, UniProt Q5YD59)
# T1 sequence (Q5YD59 19-168): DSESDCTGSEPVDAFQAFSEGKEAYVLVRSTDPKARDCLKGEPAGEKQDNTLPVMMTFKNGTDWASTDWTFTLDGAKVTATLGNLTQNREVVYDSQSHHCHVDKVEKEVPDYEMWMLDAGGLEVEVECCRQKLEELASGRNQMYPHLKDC
# Assays:
# [1] = molecular target: T1, Ornithodoros moubata Coversin (EV576, OmCI), amino acids 19 to 168 of SEQ ID NO: 2 (SEQ ID NO: 4); test: LTB4 binding to Coversin by fluorescence titration
# Method: This may be carried out by may be carried out as follows:
# Purified 100 nM solutions of Coversin, in 2 mL PBS were applied in a quartz cuvette (10 mm path length; Hellma, Malheim, Germany) equipped with a magnetic stirrer. Temperature was adjusted to 20° C. and, after equilibrium was reached, protein Tyr/Trp fluorescence was excited at 280 nm (slit width: 15 nm). The fluorescence emission was measured at 340 nm (slit width: 16 nm) corresponding to the emission maximum. […] For calculation of the KD value, data was normalized to an initial fluorescence intensity of 100%, the inner filter effect was corrected using a titration of 3 μM N-acetyl-tryptophanamide solution and data was plotted against the corresponding ligand concentration. Then, non-linear least squares regression based on the law of mass action for bimolecular complex formation was used to fit the data with Origin software version 8.5 (OriginLab, Northampton, Mass., USA) using a published formula (Breustedt et al., 2006).
# [2] = molecular target: T2, C5 (Mus musculus, UniProt P06684); test: Prevention of C5 cleavage by C5 convertase in mouse serum; type: biochemical
# T2 construct: from tissue; host or cells: mouse serum
# T2 sequence (P06684 679-1680 limits assumed): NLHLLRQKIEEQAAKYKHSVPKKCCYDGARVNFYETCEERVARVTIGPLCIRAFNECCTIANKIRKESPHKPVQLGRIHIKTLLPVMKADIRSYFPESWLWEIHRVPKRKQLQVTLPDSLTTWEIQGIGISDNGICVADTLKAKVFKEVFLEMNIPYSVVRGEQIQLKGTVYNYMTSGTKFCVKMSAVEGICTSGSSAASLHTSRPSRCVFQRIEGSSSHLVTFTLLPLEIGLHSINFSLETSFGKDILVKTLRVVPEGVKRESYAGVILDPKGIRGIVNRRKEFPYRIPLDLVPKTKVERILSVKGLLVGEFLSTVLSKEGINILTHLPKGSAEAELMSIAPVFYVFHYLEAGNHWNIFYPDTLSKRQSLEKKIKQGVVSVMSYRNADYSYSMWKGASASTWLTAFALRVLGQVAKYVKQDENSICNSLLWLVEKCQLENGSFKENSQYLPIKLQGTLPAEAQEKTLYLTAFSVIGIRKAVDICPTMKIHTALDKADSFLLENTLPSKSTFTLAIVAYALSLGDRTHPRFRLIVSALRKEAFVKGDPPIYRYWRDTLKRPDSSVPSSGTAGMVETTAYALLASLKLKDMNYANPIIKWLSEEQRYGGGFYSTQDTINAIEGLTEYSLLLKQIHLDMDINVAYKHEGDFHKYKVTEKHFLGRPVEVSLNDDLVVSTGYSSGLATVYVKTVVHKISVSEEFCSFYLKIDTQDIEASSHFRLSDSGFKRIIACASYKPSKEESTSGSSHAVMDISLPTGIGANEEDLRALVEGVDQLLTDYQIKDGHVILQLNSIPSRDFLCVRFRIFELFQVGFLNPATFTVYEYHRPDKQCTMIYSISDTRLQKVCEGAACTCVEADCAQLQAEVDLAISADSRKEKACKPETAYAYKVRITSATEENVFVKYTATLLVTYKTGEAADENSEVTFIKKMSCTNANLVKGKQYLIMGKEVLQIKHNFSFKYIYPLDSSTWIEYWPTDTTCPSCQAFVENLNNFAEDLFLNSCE
# T2 sequence (P06684 19-674 partner limits assumed): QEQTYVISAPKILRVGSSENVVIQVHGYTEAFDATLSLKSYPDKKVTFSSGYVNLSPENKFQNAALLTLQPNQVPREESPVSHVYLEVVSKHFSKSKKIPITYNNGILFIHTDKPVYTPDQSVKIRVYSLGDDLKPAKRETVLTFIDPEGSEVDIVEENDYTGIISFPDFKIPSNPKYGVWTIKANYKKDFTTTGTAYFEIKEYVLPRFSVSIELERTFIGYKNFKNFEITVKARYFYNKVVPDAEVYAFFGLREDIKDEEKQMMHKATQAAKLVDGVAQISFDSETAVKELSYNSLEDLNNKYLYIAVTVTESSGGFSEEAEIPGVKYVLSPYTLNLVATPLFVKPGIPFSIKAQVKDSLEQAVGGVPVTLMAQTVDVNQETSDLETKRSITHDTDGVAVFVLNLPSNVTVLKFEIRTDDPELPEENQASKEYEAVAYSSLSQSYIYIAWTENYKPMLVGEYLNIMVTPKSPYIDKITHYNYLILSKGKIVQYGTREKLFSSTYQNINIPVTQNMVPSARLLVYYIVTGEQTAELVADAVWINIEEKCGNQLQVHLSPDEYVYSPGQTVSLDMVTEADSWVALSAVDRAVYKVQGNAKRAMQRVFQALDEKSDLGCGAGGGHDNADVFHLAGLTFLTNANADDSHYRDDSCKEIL
# Excerpt: (§1) Coversin was isolated from the salivary glands of the tick Ornithodoros moubata. Coversin is an outlying member of the lipocalin family and is the first lipocalin family member shown to inhibit complement activation. Coversin inhibits the classical, alternative and lectin complement pathways by binding to C5 and preventing its cleavage by C5 convertase into C5a and C5b, thus inhibiting both the production of C5a, which is an active (e.g. proinflammatory) peptide, and the formation of the MAC.
# [3] = system: Antibody transfer EBA-like skin inflammation; test: Passive EBA mouse model, Coversin administered therapeutically from day 5 (Example 2); type: in vivo, C57Bl/6J WT mice; details: for Two-way ANOVA, vehicle control versus Coversin: all doses used, N=5 per group
# Method: The study included the following experimental groups, with 5 mice in each experimental group: • 1. Vehicle (PBS) control group • 2. 125 μg/kg Coversin 2× daily s.c. • 3. 2500 μg/kg Coversin 2× daily s.c.
# Antibody transfer EBA-like skin inflammation was induced, as described in Sezin et al.
# The treatment of mice with Coversin started on Day 5 of the experiment (Day 0=day of first administration of anti-COL7 antibody). Afterwards, mice were injected 12 hourly s.c. in the scapular region with Coversin or vehicle control until the end of the experiment.
# Disease severity was scored. […] The percentage of the absolute body surface affected by skin lesions (ABSA) was calculated. To score the disease, the mice were anesthetized every other day with a mixture of ketamine/xylazine administered i.p. starting day 4 of the experiment.
# Two independent experiments were conducted according to this protocol.
# Prior to the beginning of the experiment mean weight of the mice was calculated and 2.5 mg/kg and 0.125 mg/kg of the drug were prepared freshly to a final volume of 100 μl in PBS pH 7.2. The drug was prepared freshly, twice daily, 30 minutes before the final injection into the mice. Thereafter, based on the mean weight of the mice the drug was adjusted with PBS pH 7.2 to a concentration appropriate to provide the required mg/kg dose in a final volume of 100 μl. Drug was prepared freshly twice daily, 30 minutes before the final application into the animals. As a vehicle control 100 μl of PBS pH 7.2 was injected s.c into the mice.
# ABSA between treatment groups was evaluated by two-way ANOVA conducted using GraphPad Prism 7.
# [4] = system: experimental EBA; test: Antibody transfer EBA model, Coversin administered prophylactically (Example 1); type: in vivo, mice; parameters: Two-way ANOVA, vehicle control versus Coversin: dose or concentration left out as unconfirmed; details: for Two-way ANOVA, vehicle control versus Coversin: combined experiments 1 and 2; for percentage ABSA: prophylactic
# Method: (§2) Antibody transfer EBA was induced using a modified version of the protocol described by Sitaru et al., 2005 [43]. Five mice were tested in each treatment group. […] Mice were injected subcutaneously twice daily with three varying doses of Coversin starting […] before the first injection of anti-Col7 IgG (day −2). This application was continued throughout the experiment until its last day on day 11. In the control groups the mice received only the vehicle subcutaneously, or 20 mg/kg methylprednisolone once daily.
# To generate antibodies directed to murine type VII collagen (“anti-COL7”), New Zealand White rabbits were immunized with 200 μg of a protein mixture containing three different recombinant proteins (“Col7A, B, and C”) derived from the non-collagenous 1 (NC1) domain of collagen VII together with incomplete Freund's adjuvant. IgGs were isolated from the serum of immunized rabbits by use of protein G, and afterwards IgGs were affinity-purified with his-Col7 to specifically obtain rabbit anti-Col7 IgG. Antibodies were quality checked by determining the titer and the potency in the cryosection assay.
# (§3) Starting on day 4, the extent of skin lesions was scored in each individual mouse every other day. […] The percentage of the total body surface affected by skin lesions (ABSA) was calculated.
# Two independent experiments were conducted.
# [5] = molecular target: T3, C5 (Homo sapiens, UniProt P01031); details: surface plasmon resonance, ref [31]; cited from earlier work
# Target sequence in this assay (P01031 19-1676): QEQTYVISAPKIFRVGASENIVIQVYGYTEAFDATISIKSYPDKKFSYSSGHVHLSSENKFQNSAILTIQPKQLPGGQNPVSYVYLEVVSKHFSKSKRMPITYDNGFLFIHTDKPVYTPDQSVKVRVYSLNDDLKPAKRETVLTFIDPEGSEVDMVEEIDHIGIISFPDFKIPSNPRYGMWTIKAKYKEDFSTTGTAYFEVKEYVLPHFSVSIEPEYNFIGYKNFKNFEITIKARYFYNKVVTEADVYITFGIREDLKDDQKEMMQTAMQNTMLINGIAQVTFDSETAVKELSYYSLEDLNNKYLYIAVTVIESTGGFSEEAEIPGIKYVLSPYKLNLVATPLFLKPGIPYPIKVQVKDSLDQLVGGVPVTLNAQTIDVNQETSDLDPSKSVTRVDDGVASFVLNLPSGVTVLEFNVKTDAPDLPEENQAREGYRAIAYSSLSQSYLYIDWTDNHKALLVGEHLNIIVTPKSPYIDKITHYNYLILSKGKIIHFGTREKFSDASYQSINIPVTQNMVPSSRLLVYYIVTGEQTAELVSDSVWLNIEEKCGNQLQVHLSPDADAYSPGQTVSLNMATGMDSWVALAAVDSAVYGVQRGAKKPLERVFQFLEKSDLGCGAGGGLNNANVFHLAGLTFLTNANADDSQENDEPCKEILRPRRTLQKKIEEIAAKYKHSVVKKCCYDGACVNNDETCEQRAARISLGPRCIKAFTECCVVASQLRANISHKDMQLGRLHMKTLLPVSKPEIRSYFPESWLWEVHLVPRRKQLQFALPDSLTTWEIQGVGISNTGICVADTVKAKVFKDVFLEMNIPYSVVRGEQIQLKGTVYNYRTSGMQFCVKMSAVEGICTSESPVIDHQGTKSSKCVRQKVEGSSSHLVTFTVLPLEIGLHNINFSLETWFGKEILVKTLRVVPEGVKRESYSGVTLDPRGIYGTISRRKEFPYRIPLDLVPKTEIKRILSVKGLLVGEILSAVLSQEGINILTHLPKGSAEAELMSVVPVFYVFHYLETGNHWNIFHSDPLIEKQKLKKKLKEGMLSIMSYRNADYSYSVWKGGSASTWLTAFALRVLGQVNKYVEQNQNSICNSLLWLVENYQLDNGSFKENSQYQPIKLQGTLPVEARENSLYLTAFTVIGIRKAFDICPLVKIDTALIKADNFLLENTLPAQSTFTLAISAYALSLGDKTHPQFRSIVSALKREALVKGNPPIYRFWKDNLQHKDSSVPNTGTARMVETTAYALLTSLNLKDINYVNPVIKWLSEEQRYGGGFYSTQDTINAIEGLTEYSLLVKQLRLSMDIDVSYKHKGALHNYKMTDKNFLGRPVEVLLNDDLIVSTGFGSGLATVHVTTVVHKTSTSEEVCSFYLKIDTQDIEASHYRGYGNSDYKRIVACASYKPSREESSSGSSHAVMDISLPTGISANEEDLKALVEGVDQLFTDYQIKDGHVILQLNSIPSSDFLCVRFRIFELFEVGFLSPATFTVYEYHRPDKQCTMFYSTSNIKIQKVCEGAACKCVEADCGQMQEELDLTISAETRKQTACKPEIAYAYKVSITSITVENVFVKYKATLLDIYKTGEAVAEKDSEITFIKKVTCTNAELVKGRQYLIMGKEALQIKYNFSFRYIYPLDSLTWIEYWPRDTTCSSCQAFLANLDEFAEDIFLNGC
# [6] = molecular target: T3, C5; test: Prevention of C5 cleavage by C5 convertase in human serum; type: biochemical; parameters: from tissue; host or cells: human serum
# Excerpt: as §1
# [7] = system: experimental EBA; test: Experimental EBA, prophylactic PAS-L-Coversin versus Coversin (Example 4); type: in vivo, mice; details: 2.5 mg/kg Coversin; for Clinical score of experimental EBA: prophylactic
# Method: as §2, §3
# In a further experiment, the effect of PAS-L-Coversin was assessed. Mice were treated with 0.1 mg/kg, 10 mg/kg, 1 mg/kg PAS-L-Coversin, or 2.5 mg/kg Coversin, with the experiment being carried out as described above. […] The sequence of the L-Coversin sequence is a variant of the mature Coversin sequence (SEQ ID NO: 4) in which the following residues have been modified: Ala44 to Asn, Met116 to Gln, Leu117 to Ser, Gly121 to Ala, Leu122 to Asp, Glu123 to Ala and Asp149 to Gly, (referred to as variant 2, sequence is dsesdctgse pvdafqafse gkeayvlvrs tdpkardclk gepNgekqdn tlpvmmtfkn gtdwastdwt ftldgakvta tlgnitqnre vvydsqshhc hvdkvekevp dyemwQSdag ADAveveccr qkleelasgr nqmyphlkGc (SEQ ID NO:23), where the changes relative to the native Coversin sequence of SEQ ID NO:4 are in capitals). Because of the higher molecule weight of the PAS-L-Cov, 10 mg/kg PAS-L-Cov corresponds to 2.5 mg/kg Coversin. In the first experiment (FIG. 6A) the 10 mg/kg dose but not 1 mg/kg or 0.1 mg/kg dose of PAS-L-Coversin reduced ABSA compared to control. In the second experiment (FIG. 6B), the 10 mg/kg dose and the 1 mg/kg but not the 0.1 mg/kg dose of PAS-L-Coversin reduced ABSA compared to control.
# [8] = molecular target: T4, C5 (Rattus norvegicus, UniProt P08650); test: Prevention of C5 cleavage by C5 convertase in rat serum; type: biochemical
# T4 construct: from tissue; host or cells: rat serum
# T4 sequence (P08650 19-1681): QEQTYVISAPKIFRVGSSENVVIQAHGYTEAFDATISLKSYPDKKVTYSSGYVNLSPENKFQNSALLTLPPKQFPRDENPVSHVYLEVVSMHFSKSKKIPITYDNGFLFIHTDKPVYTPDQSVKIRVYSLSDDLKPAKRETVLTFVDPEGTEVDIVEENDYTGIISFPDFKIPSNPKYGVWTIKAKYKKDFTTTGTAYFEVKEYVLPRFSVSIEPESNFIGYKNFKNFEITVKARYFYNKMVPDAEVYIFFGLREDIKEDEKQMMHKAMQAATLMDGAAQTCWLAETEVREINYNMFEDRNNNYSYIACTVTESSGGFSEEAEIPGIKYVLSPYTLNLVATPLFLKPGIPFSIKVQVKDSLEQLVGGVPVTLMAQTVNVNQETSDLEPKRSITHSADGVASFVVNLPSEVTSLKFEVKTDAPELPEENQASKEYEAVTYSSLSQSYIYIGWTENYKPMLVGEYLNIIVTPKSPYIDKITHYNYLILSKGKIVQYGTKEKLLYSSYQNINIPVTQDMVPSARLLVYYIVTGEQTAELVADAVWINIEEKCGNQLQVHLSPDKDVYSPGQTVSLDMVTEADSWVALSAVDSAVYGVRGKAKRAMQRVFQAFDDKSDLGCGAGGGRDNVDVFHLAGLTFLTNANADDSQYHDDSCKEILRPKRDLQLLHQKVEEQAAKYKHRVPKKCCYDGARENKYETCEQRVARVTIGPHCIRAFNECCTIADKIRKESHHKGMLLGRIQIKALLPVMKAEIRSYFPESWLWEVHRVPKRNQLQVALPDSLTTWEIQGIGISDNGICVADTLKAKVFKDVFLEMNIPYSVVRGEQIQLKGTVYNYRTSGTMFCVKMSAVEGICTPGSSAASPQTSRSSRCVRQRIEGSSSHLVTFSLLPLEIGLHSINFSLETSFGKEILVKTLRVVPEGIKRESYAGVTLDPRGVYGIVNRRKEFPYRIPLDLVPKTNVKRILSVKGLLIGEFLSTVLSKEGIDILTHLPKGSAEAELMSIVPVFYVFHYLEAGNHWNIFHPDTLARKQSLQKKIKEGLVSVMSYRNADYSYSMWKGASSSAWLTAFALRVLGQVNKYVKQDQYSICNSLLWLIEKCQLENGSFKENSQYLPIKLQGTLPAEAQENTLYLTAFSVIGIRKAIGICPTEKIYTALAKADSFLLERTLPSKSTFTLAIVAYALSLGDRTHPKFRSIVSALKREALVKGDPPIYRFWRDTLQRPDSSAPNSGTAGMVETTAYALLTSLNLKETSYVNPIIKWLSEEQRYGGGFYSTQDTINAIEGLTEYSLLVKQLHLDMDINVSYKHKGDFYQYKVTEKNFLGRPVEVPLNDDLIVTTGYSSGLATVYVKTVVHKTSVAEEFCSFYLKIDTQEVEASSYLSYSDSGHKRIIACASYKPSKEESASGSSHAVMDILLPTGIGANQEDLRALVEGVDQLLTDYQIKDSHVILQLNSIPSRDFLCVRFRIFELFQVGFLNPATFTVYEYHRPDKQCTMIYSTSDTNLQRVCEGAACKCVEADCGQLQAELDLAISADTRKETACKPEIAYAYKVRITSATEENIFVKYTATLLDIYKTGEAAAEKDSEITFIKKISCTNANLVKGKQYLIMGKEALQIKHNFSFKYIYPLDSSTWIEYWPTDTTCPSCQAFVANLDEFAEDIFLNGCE
# Excerpt: as §1
# [9] = system: Experimental EBA; details: ref [44], cited from earlier work
# [10] = LTB4 binding of L-Coversin (method not given); details: mutated Coversin sequence (variant 2)
# [11] = molecular target: T3, C5; test: C5 binding of L-Coversin (method not given); details: mutated Coversin sequence (variant 2)
# Target sequence in this assay (P01031 19-1676): as the sequence (P01031 19-1676) above
molecule,measurement,setting,value
"CCCCC/C=C\C[C@@H](O)/C=C/C=C/C=C\[C@@H](O)CCCC(=O)O [LTB4, Leukotriene B4]",Kd,[1],0.2 to 0.3 nM
"Coversin: tick Ornithodoros moubata protein, amino acids 19 to 168 of SEQ ID NO: 2 (SEQ ID NO: 4); binds C5 and LTB4","IC50, binding C5 and preventing its cleavage by C5 convertase",[2],approximately 0.02 mg/ml
same,"Two-way ANOVA, vehicle control versus Coversin","[3]; Experiment 1 (FIG. 7), females",significant differences
same,ABSA,"[3]; Experiment 1, 2.5 mg/kg Coversin, vehicle about 7%",effective in reducing ABSA
same,"skin inflammation measured by absolute body surface area affected (ABSA), dose dependence","[3]; Experiment 1, females, 125 and 2500 μg/kg 2× daily s.c. from day 5",dose-dependently ameliorated skin inflammation
same,"Two-way ANOVA, vehicle control versus Coversin","[3]; Experiment 2 (FIG. 8), males",significant differences
same,"skin inflammation, dose dependence","[3]; Experiment 2 (FIG. 8), males, 125 and 2500 μg/kg 2× daily s.c. from day 5",dose-dependently ameliorated skin inflammation
same,skin inflammation measured by ABSA,"[3]; Experiment 2, 2.5 mg/kg Coversin, vehicle peaked at about 4%",significantly (P<0.01) ameliorated skin inflammation
same,deaths during treatment,"[3]; the two experiments, up to day 12",no deaths
same,"Two-way ANOVA, vehicle control versus Coversin",[4]; dose 250,statistically significant difference
same,"Two-way ANOVA, vehicle control versus Coversin",[4]; dose 2500,statistically significant difference
same,Clinical score of experimental EBA,"[4]; combined results of experiments 1 and 2 (FIG. 5), all doses",ameliorated disease
same,"reduction of percentage ABSA compared with previously tested agents (Zileuton, methylprednisolone)","[4]; comparison with similar earlier experiments, particularly at 2.5 mg/kg and 0.25 mg/kg",to a greater degree; also recorded: greater effect
same,Clinical score of experimental EBA,"[4]; experiment 1 (FIG. 3), all doses of Coversin, vs vehicle control group and methylprednisolone group",ameliorated disease
same,Clinical score of experimental EBA,"[4]; experiment 2 (FIG. 4), all doses of Coversin, vs vehicle control group and methylprednisolone group",ameliorated disease
same,significance of effect compared to vehicle control group,"[4]; experiment 2 (FIG. 4), only at the 2.5 mg/kg dose",significant effect
same,difference in ABSA between vehicle and treated,"[4]; first experiment, 0.25 mg/kg dose, P 0.0023 by two tailed t-test",63%
same,mean ABSA score (SD),"[4]; first experiment, 0.25 mg/kg dose, day 10, vehicle 6.23+1.1",2.65+0.4
same,percentage ABSA,"[4]; first experiment, Coversin 25 μg/kg s.c. twice daily",reduced
same,percentage ABSA,"[4]; first experiment, Coversin 250 μg/kg s.c. twice daily",further reduced
same,percentage ABSA,"[4]; first experiment, Coversin 2500 μg/kg s.c. twice daily",further reduced
same,Kd,[5],1 nM
same,"IC50, binding C5 and preventing its cleavage by C5 convertase",[6],approximately 0.02 mg/ml
same,Clinical score of experimental EBA,"[7]; Example 4, experiment 1 (FIG. 6A)",ameliorated disease
same,Clinical score of experimental EBA,"[7]; Example 4, experiment 2 (FIG. 6B)",ameliorated disease
same,statistical significance of effect on ABSA,[7]; second experiment (FIG. 6B),statistically significant effect
same,"IC50, binding C5 and preventing its cleavage by C5 convertase",[8],approximately 0.02 mg/ml
"CC(c1cc2ccccc2s1)N(O)C(N)=O (stereo not shown) [Zileuton, N-[1-(1-benzothien-2-yl)ethyl]-N-hydroxyurea]",clinical score day 7,"[9]; 0.6-0.8 mg/mouse/day in drinking water, female mice, control group 9.2±0.7",5.9±0.5 % of affected surface body area
same,disease severity as compared to control group,"[9]; from day 7 until end-point, 0.6-0.8 mg/mouse/day",significantly reduced disease severity
"L-Coversin: SEQ ID NO: 23; SEQ ID NO: 4 with Ala44Asn, Met116Gln, Leu117Ser, Gly121Ala, Leu122Asp, Glu123Ala, Asp149Gly (protein, Coversin variant 2) DSESDCTGSEPVDAFQAFSEGKEAYVLVRSTDPKARDCLKGEPNGEKQDNTLPVMMTFKNGTDWASTDWTFTLDGAKVTATLGNLTQNREVVYDSQSHHCHVDKVEKEVPDYEMWQSDAGADAVEVECCRQKLEELASGRNQMYPHLKGC",LTB4 binding,[10],binds LTB4
same,C5 binding,[11],does not bind C5
